Our source for the solubility values is patent US20220202322A1, “DRUG RELEASE COMPOSITIONS AND METHODS FOR DELIVERY” (ABBOTT DIABETES CARE INC., priority 2020, published 2022).

In brackets after ≈: the same amount, converted by molar mass.

The nature of this data set: physchem. In kind it is physicochemical. The following applies: water. An excerpt: Conjugating dexamethasone to a water-soluble polymer makes dexamethasone water soluble, which allows for more consistent dispensing. […] As further shown in FIG. 22D, dispensing of the solution of 18 without a crosslinking agent (left panel) and with a crosslinking agent (right panel) was consistent and performed without difficulty.

A word on the solubility: it is the concentration that dissolves in the medium under given conditions. Low values mean a poorly soluble substance, high ones a readily soluble substance. On to `C[C@@H]1C[C@H]2[C@@H]3CCC4=CC(=O)C=C[C@]4(C)[C@@]3(F)[C@@H](O)C[C@]2(C)[C@@]1(O)C(=O)CO` [dexamethasone], for which the concentration in solution (solubility) came to 50 µg/mL (≈ 127 µM).
